Columns and labels:
[1] = system: 5-HT1A serotonin receptor sites; settings: background statement, no reference given; cited from earlier work
[2] = biological target: T1, 5-HT1A receptors (Rattus norvegicus, UniProt P19327); experiment: Radioligand binding, displacement of [3H]-8-OH-DPAT in rat hippocampus
T1 sequence (P19327 1-422): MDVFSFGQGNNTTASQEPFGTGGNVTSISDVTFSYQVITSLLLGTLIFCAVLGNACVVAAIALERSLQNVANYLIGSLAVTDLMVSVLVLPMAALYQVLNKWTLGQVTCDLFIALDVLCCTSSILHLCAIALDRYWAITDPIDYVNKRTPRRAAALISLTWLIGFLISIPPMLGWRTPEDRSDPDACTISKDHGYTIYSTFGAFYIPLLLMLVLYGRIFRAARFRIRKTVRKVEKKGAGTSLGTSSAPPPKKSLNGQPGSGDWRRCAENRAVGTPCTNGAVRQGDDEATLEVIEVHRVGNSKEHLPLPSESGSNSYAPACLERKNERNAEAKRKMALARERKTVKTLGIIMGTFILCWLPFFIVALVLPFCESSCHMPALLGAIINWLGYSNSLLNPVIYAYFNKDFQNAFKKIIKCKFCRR

[3] = biological target: 5-HT2A receptors (Rattus norvegicus, UniProt P14842); experiment: Radioligand binding, displacement of [3H]-ketanserin in rat cortex
Sequence of 5-HT2A receptors (P14842 whole entry): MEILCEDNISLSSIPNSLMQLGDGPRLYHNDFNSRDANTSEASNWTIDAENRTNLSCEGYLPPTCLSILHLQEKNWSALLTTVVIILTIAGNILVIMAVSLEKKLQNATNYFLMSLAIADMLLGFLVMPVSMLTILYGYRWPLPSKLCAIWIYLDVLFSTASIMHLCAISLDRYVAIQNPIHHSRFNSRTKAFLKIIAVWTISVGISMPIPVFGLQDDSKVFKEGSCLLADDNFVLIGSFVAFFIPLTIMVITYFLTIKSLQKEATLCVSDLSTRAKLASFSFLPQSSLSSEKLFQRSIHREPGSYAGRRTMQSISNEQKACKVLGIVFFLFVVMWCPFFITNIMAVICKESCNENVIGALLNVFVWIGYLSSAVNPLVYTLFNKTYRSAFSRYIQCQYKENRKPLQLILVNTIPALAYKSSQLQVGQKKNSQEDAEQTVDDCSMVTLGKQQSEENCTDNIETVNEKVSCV

SMILES	binding to 5-HT1A serotonin receptor sites (in words) [1]	Ki [2] [nM]	Ki [3] [nM]
O=C1CC2(CCCC2)CC(=O)N1CCCCN1CCN(c2ncccn2)CC1 [Buspirone, {4-[4-(2-pyrimidinyl)-1-piperazinyl]butyl}-8-azaspiro[4.5]decane-7,9-dione]	high affinity and selectivity		
O=c1c2ccccc2c(=O)n(-c2ccccc2)n1CCCCN1CCN(c2ccccc2)CC1 [Compound 8c, 3-[4-(4-phenyl-1-piperazinyl)butyl]-2-phenyl-2,3-dihydrophthalazine-1,4-dione]		119 ± 8	309 ± 1
O=c1ccc(=O)n(-c2ccccc2)n1CCCCN1CCN(c2ccccc2)CC1 [Compound 9c, 2-[4-(4-phenyl-1-piperazinyl)butyl]-1-phenyl-1,2-dihydropyridazine-3,6-dione]		19 ± 1	409 ± 17
CC1(C)CC(=O)N(CCCCN2CCN(c3ncccn3)CC2)C(=O)C1 [Gepirone]	high affinity and selectivity		
O=C1c2ccccc2S(=O)(=O)N1CCCCN1CCN(c2ncccn2)CC1 [Ipsapirone]	high affinity and selectivity		
